Legend:
[1] = molecular target: T1, AmGr3 (Apis mellifera, UniProt A0A7M7IGL4); experiment: two-electrode voltage clamp, Xenopus oocytes; assay type: cell-based; conditions: 160 mM sugar, pH 7.5, -80 and -140 mV; agonist
T1 construct: gene LOC725483; cDNA cloned from taste tissue, subcloned in pNBIu, cRNA expressed alone in Xenopus oocytes
T1 sequence (A0A7M7IGL4 1-474): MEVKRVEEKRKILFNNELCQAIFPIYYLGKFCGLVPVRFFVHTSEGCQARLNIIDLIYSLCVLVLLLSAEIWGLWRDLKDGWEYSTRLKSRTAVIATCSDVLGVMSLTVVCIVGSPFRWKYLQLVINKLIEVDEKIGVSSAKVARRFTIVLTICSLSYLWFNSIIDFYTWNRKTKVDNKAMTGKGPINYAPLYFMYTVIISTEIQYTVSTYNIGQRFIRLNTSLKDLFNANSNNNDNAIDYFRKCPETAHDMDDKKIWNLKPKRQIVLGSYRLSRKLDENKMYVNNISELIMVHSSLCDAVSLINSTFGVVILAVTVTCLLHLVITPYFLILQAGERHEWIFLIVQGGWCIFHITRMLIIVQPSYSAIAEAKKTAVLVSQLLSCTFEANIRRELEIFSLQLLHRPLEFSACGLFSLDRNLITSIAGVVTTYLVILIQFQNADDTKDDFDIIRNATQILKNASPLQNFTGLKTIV

[2] = molecular target: T2, AmGr2 (Apis mellifera, UniProt A0A7M7R6T6); experiment: two-electrode voltage clamp, Xenopus oocytes; assay type: cell-based; conditions: 160 mM sugar, pH 7.5, -80 mV, agonist
T2 construct: gene LOC413684; cDNA cloned from taste tissue, subcloned in pNBIu, cRNA expressed alone in Xenopus oocytes; homomer
T2 sequence (A0A7M7R6T6 1-470): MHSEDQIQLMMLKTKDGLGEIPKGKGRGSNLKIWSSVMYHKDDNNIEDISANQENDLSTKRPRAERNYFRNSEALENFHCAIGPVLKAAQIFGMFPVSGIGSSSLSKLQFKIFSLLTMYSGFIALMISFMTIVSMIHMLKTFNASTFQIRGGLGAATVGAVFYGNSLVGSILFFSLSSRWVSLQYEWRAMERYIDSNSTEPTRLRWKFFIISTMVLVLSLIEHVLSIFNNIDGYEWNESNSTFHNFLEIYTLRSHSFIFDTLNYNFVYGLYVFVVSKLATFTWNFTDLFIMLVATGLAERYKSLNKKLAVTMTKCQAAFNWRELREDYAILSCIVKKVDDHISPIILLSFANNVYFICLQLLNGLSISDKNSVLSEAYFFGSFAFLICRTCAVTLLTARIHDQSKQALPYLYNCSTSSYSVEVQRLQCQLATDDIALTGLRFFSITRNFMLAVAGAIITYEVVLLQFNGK

`OCC1(O)OC[C@@H](O)[C@@H](O)[C@@H]1O` (stereo partly drawn) [fructose] was tested, and the “two-electrode voltage clamp, Xenopus oocytes” value (shortened to “two-electrode voltage clamp”) [1] was “The sole expression of AmGr3 in oocytes revealed only fructose-induced current responses”.

With `OC[C@H]1OC(O)[C@H](O)[C@@H](O)[C@@H]1O` (stereo partly drawn) [glucose] the “two-electrode voltage clamp” value ([2]; transient microscopic inward current) was “AmGr2-expression revealed transient inward currents during glucose application”.

With `OC[C@H]1O[C@@](CO)(O[C@H]2O[C@H](CO)[C@@H](O)[C@H](O)[C@H]2O)[C@@H](O)[C@@H]1O` [sucrose] the “two-electrode voltage clamp” value ([2]; microscopic inward current) was “Sustained inward currents could only be generated by application of sucrose”.

— paper PMC9880324, “Sugar perception in honeybees” (Frontiers in Physiology, 2023)
